Legend:
[1] = Pharmacokinetic evaluation of prodrugs in rats following intramuscular injection; assay type: in vivo, Male Sprague-Dawley rats; conditions: rat, IM injection
Procedure: Male Sprague-Dawley rats (Charles River Laboratories, Wilmington, Mass.) were obtained. Approximately 24 rats were used in each study. Rats were approximately 350-375 g at time of arrival. Rats were housed 2 per cage with ad libitum chow and water. Environmental conditions in the housing room: 64-67 OF, 30% to 70% relative humidity, and 12:12-h light:dark cycle. All experiments were approved by the institutional animal care and use committee.
(§1) Rats were dosed IM by means of a 25 gauge, ⅝ inch needle with 1 cc syringe 0.3 mL suspension was withdrawn from the vial containing the test compound (see Table E). The […] was injected in the muscles of the hind limb after anesthesia with isoflourane. Blood samples were collected via a lateral tail vein after brief anesthesia with Isoflurane. A 27½-G needle and 1 cc syringe without an anticoagulant was used for the blood collection. Approximately 350 μL of whole blood was collected at each sampling time-point of 6 hours, 24 hours and 2, 5, 7, 9, 12, 14, 21, 28, 35 days after administration. Once collected, whole blood was immediately transferred to tubes containing K2 EDTA, inverted 10-15 times and immediately placed on ice. The tubes were centrifuged for 2 minutes at >14,000 g's (11500 RPMs using Eppendorf Centrifuge 5417C, F45-30-11 rotor) at room temperature to separate plasma. Plasma samples were transferred to labeled plain tubes (MICROTAINER®) and stored frozen at <−70° C.
(§2) Drug concentrations in plasma samples were analyzed by liquid chromatography-mass spectroscopy using appropriate parameters for each compound. Half-life, volume of distribution, clearance, maximal concentration, and AUC were calculated by using WinNonlin Version 5.2_software (Pharsight, St. Louis, Mo.).

[2] = system: D-Amphetamine-induced locomotion; experiment: Pharmacodynamic study in amphetamine-induced locomotion model; conditions: D-AMPH 1.5 mg/kg IP
[3] = Pharmacokinetic study for pioglitazone, Compounds 1002 and 1008; assay type: in vivo, rats; conditions: rat, intramuscular; pioglitazone prodrug, crystalline material in 2% CMC, 0.2% Tween 20, PBS buffer pH 6.7; dose 67 mg/kg in table
Procedure: as §1, §2
PK profile of compounds 1002 and 1008 was compared to pioglitazone using a similar model as described above. 20 mg of pioglitazone or 20 mg equivilant of pioglitazone prodrug was administered intramuscularly.

[4] = crystalline suspension or oil emulsion
[5] = oral oil solution (PO), 0.66, 10 and 20 mg/rat
[6] = solution in ethyl oleate, dose (mg/kg)
[7] = PO, at the higher dose of 20 mg

Row | SMILES | AUC0-14 [1, 4] [ng·days/mL] | AUC0-T [1, 4] [ng·days/mL] | other results
1 | CC(=O)OCN1C(=O)CCc2ccc(OCCCCN3CCN(c4cccc(Cl)c4Cl)CC3)cc21 [Compound 1, (7-(4-(4-(2,3-dichlorophenyl)piperazin-1-yl)butoxy)-2-oxo-3,4-dihydroquinolin-1(2H)-yl)methyl acetate] | 1673 | 1938 | –
2 | CCCC(=O)OCN1C(=O)CCc2ccc(OCCCCN3CCN(c4cccc(Cl)c4Cl)CC3)cc21 [Compound 2, (7-(4-(4-(2,3-dichlorophenyl)piperazin-1-yl)butoxy)-2-oxo-3,4-dihydroquinolin-1(2H)-yl)methyl butyrate] | 1016.9 | 1139.8 | –
3 | CCCCCC(=O)OCN1C(=O)CCc2ccc(OCCCCN3CCN(c4cccc(Cl)c4Cl)CC3)cc21 [Compound 4, (7-(4-(4-(2,3-dichlorophenyl)piperazin-1-yl)butoxy)-2-oxo-3,4-dihydroquinolin-1(2H)-yl)methyl hexanoate] | 1455.4 | 1678 | dose dependence of inhibition of distance travelled [2, 5]: did not appear to be dose dependent; inhibition of increase in total distance traveled caused by D-AMPH [2, 5]: significantly inhibited the increases in distance traveled caused by D-AMPH
4 | CCCCCCCC(=O)OCN1C(=O)CCc2ccc(OCCCCN3CCN(c4cccc(Cl)c4Cl)CC3)cc21 [Compound 5, (7-(4-(4-(2,3-dichlorophenyl)piperazin-1-yl)butoxy)-2-oxo-3,4-dihydroquinolin-1(2H)-yl)methyl octanoate] | 1728.6 | 1742 | –
5 | CCCCCCCCCC(=O)OCN1C(=O)CCc2ccc(OCCCCN3CCN(c4cccc(Cl)c4Cl)CC3)cc21 [Compound 6, (7-(4-(4-(2,3-dichlorophenyl)piperazin-1-yl)butoxy)-2-oxo-3,4-dihydroquinolin-1(2H)-yl)methyl decanoate] | 1490.3 | 1678.1 | AUC0-14 [1, 6]: 67 ng·days/mL; AUC0-T [1, 6]: 327 ng·days/mL
6 | CCCCCCCCCCCC(=O)OCN1C(=O)CCc2ccc(OCCCCN3CCN(c4cccc(Cl)c4Cl)CC3)cc21 [Compound 7, (7-(4-(4-(2,3-dichlorophenyl)piperazin-1-yl)butoxy)-2-oxo-3,4-dihydroquinolin-1(2H)-yl)methyl dodecanoate] | 512.0 | 1169.5 | inhibition of increase in total distance traveled caused by D-AMPH [2, 7]: did appear to significantly inhibit increases in distance traveled caused by D-AMPH
7 | CCCCCCCCCCCCCCCC(=O)OCN1C(=O)CCc2ccc(OCCCCN3CCN(c4cccc(Cl)c4Cl)CC3)cc21 [Compound 10, (7-(4-(4-(2,3-dichlorophenyl)piperazin-1-yl)butoxy)-2-oxo-3,4-dihydroquinolin-1(2H)-yl)methyl palmitate] | 302 | 786.6 | –
8 | O=C(OCN1C(=O)CCc2ccc(OCCCCN3CCN(c4cccc(Cl)c4Cl)CC3)cc21)c1ccccc1 [Compound 31, (7-(4-(4-(2,3-dichlorophenyl)piperazin-1-yl)butoxy)-2-oxo-3,4-dihydroquinolin-1(2H)-yl)methyl benzoate] | 819.0 | 997 | –
9 | CC(C)C(=O)OCN1C(=O)CCc2ccc(OCCCCN3CCN(c4cccc(Cl)c4Cl)CC3)cc21 [Compound 32, (7-(4-(4-(2,3-dichlorophenyl)piperazin-1-yl)butoxy)-2-oxo-3,4-dihydroquinolin-1(2H)-yl)methyl isobutyrate] | 1334.4 | 1486 | –
10 | O=C(OCN1C(=O)CCc2ccc(OCCCCN3CCN(c4cccc(Cl)c4Cl)CC3)cc21)C1CCC1 [Compound 34, (7-(4-(4-(2,3-dichlorophenyl)piperazin-1-yl)butoxy)-2-oxo-3,4-dihydroquinolin-1(2H)-yl)methyl cyclobutanecarboxylate] | 2050 | 2095.8 | –
11 | CNC(=O)OCN1C(=O)CCc2ccc(OCCCCN3CCN(c4cccc(Cl)c4Cl)CC3)cc21 [Compound 47, (7-(4-(4-(2,3-dichlorophenyl)piperazin-1-yl)butoxy)-2-oxo-3,4-dihydroquinolin-1(2H)-yl)methyl methylcarbamate] | 113 | 176 | inhibition of increase in total distance traveled caused by D-AMPH [2, 7]: did appear to significantly inhibit increases in distance traveled caused by D-AMPH
12 | CC(C)OC(=O)OCN1C(=O)CCc2ccc(OCCCCN3CCN(c4cccc(Cl)c4Cl)CC3)cc21 [Compound 48, (7-(4-(4-(2,3-dichlorophenyl)piperazin-1-yl)butoxy)-2-oxo-3,4-dihydroquinolin-1(2H)-yl)methyl isopropyl carbonate] | 2238 | 2264.6 | –
13 | O=C(OCN1C(=O)CCc2ccc(OCCCCN3CCN(c4cccc(Cl)c4Cl)CC3)cc21)N1CCOCC1 [Compound 49, (7-(4-(4-(2,3-dichlorophenyl)piperazin-1-yl)butoxy)-2-oxo-3,4-dihydroquinolin-1(2H)-yl)methyl morpholine-4-carboxylate] | 152 | 199.7 | –
14 | CCOC(=O)OCN1C(=O)CCc2ccc(OCCCCN3CCN(c4cccc(Cl)c4Cl)CC3)cc21 [Compound 79, (7-(4-(4-(2,3-dichlorophenyl)piperazin-1-yl)butoxy)-2-oxo-3,4-dihydroquinolin-1(2H)-yl)methyl ethyl carbonate] | 907.4 | 940 | AUC0-14 [1, 6]: 954 ng·days/mL
15 | CCCCCCOC(=O)OCN1C(=O)CCc2ccc(OCCCCN3CCN(c4cccc(Cl)c4Cl)CC3)cc21 [Compound 81, (7-(4-(4-(2,3-dichlorophenyl)piperazin-1-yl)butoxy)-2-oxo-3,4-dihydroquinolin-1(2H)-yl)methyl hexyl carbonate] | – | – | AUC0-14 [1, 6]: 584 ng·days/mL
16 | CCCCCCCCCCOC(=O)OCN1C(=O)CCc2ccc(OCCCCN3CCN(c4cccc(Cl)c4Cl)CC3)cc21 [Compound 82, decyl (7-(4-(4-(2,3-dichlorophenyl)piperazin-1-yl)butoxy)-2-oxo-3,4-dihydroquinolin-1(2H)-yl)methyl carbonate] | – | – | AUC0-14 [1, 6]: 204 ng·days/mL
17 | CC(C)CCOC(=O)OCN1C(=O)CCc2ccc(OCCCCN3CCN(c4cccc(Cl)c4Cl)CC3)cc21 [Compound 85, (7-(4-(4-(2,3-dichlorophenyl)piperazin-1-yl)butoxy)-2-oxo-3,4-dihydroquinolin-1(2H)-yl)methyl isopentyl carbonate] | 1233.9 | 1348 | –
18 | CCCC(=O)OCN1C(=O)SC(Cc2ccc(OCCc3ccc(CC)cn3)cc2)C1=O (stereo not shown) [Compound 1002, (5-(4-(2-(5-ethylpyridin-2-yl)ethoxy)benzyl)-2,4-dioxothiazolidin-3-yl)methyl butyrate] | – | – | AUC0-14 [3]: 5350 ng·days/mL; AUC0-T [3]: 5972 ng·days/mL
19 | CCCCCCCCCCCCCCCC(=O)OCN1C(=O)SC(Cc2ccc(OCCc3ccc(CC)cn3)cc2)C1=O (stereo not shown) [Compound 1008, (5-(4-(2-(5-ethylpyridin-2-yl)ethoxy)benzyl)-2,4-dioxothiazolidin-3-yl)methyl palmitoate] | – | – | AUC0-14 [3]: 5000 ng·days/mL; AUC0-T [3]: 6763 ng·days/mL
